Reference: US20090062382A1, “EXTERNAL PREPARATION FOR IMPROVING COITAL FUNCTION” (CARDIOVASCULAR INSTITUTE, LTD., priority 2003, published 2009)

Tested on: penis
Assay: Clinical study: penile temperature change by thermography
Format: in vivo, human
Conditions: intra-urethral infusion; FIG. 7
Description: Five (5) healthcare workers of 60 to 69 years old having no early-morning erection were subjected to the study. After obtaining verbal informed consent, the study was carried out from May 2001 through February 2003 as described below.
After keeping the subjects at rest with naked from the waist down for 5 minutes at room temperature of 25° C. and humidity of 60%, temperature of a penis, oxygen saturation in a penile sponge body, and hardness of a penis were measured. The measurement was carried out before administration of the preparation as reference and at 1, 3, 6, 12, 24 and 36 hours after administration, and the value of change (changed value±average error) were recorded. When there was no change at 3 hours after administration, the preparation was considered not effective and measurement thereafter was quitted.
Embrocation: 0.5 ml of each preparation was applied all over to a glans and a penis.
The relevant infusion apparatus was inserted into a urethra, and 0.5 ml of the preparation was infused by rotating a cylinder.
Temperature rise reflects increased blood-flow. So, penile temperature was measured by a thermography (Thermo Tracer TH5108, NEC San-ei Instruments, Ltd.). As this instrument can display a measurement site and temperature of the site numerically on a screen, measurements before and after administrations were possible to be performed at the same position. […]

SMILES: CC#CCC(C)[C@H](O)/C=C/[C@@H]1[C@H]2c3cccc(CCCC(=O)[O-])c3O[C@H]2C[C@H]1O.[Na+] (relative stereo) [beraprost sodium, (+)-(1R*,2R*,3aS*,8bS*)-2,3,3a,8b-tetrahydro-2-hydroxy-1-[(e)-(3S*)-3-hydroxy-4-methyl-1-octene-6-ynyl]-1H-cyclopenta [b]benzofuran-5-butanoic acid sodium salt]
- level and duration of temperature increase: low
